Data reported in US20100216751A1 (priority 2007, published 2010).
Where “and” joins values, the source holds several entries; their conditions need not be identical. Identical values can stand only once.

Assay: Pharmacokinetic evaluation of liquid bevirimat dosage forms, oral gavage, male Cynomolgus monkeys
Method: Six male Cynomolgus monkeys having an initial body weight of about 3.5 to about 4.5 kg are allowed 7 days to acclimate to their individual housing units. Monkeys are supplied with water and a commercial diet ad libitum prior to the study initiation. Food is withheld from the monkeys for a minimum of twelve hours before the study and during the study until four hours postdose when food is returned. Water is supplied ad libitum.
Test formulations are administered to the monkeys at time 0 on appropriate days. Test formulations will be dosed orally via oral gavage or intravenously.
Samples are drawn at the frequencies indicated below. Each blood sample (0.5 mL) is collected from the monkey's saphenous vein via a butterfly catheter and placed into a chilled polypropylene tube containing sodium heparin as the anticoagulant. Blood samples are centrifuged at a temperature of 4° C. at a speed of 3,000 rpm for 15 minutes. All samples are maintained chilled throughout processing. Plasma is collected after centrifugation, pipetted into a 2-mL polypropylene microtube, and frozen on dry-ice pending analytical evaluation.

[1] = oral, 50 mg/monkey, PG/glycerin/Vitamin ETPGS/Tween80/Plasdone C15 formulation, individual monkey
[2] = oral, 50 mg/monkey, PG/glycerin/Vitamin ETPGS/ethanol formulation, individual monkey
[3] = oral, 200 mg/monkey, PG/glycerin/Vitamin ETPGS/ethanol formulation, individual monkey

Question: Which concentration at 6 hr (male, cynomolgus monkey, in vivo, po, 200 mg/monkey, Plasma Concentration, PG/glycerin/Vitamin ETPGS/ethanol formulation, 6.0 hr, individual monkey) does the source give for C=C(C)[C@@H]1CC[C@]2(C(=O)O)CC[C@]3(C)[C@H](CC[C@@H]4[C@@]5(C)CC[C@H](OC(=O)CC(C)(C)C(=O)O)C(C)(C)[C@@H]5CC[C@]43C)[C@@H]12 [Bevirimat, 3-O-(3′,3′-dimethylsuccinyl)betulinic acid] here?
Answer: 79400 ng/mL

Question: And the concentration at 8 hr (male, cynomolgus monkey, in vivo, po, 200 mg/monkey, Plasma Concentration, PG/glycerin/Vitamin ETPGS/ethanol formulation, 8.0 hr, AVG)?
Answer: 51300 ng/mL

Question: What about the concentration at 8 hr (male, cynomolgus monkey, in vivo, po, 200 mg/monkey, Plasma Concentration, PG/glycerin/Vitamin ETPGS/ethanol formulation, 8.0 hr, individual monkey) of the same compound?
Answer: 53400 ng/mL

Question: And the concentration at 12 hr (male, cynomolgus monkey, in vivo, po, 200 mg/monkey, Plasma Concentration, PG/glycerin/Vitamin ETPGS/ethanol formulation, 12 hr, AVG)?
Answer: 19600 ng/mL

Question: What about the concentration at 12 hr (male, cynomolgus monkey, in vivo, po, 200 mg/monkey, Plasma Concentration, PG/glycerin/Vitamin ETPGS/ethanol formulation, 12 hr, individual monkey) of the same compound?
Answer: 15600 ng/mL

Question: What about the concentration at 24 hr (male, cynomolgus monkey, in vivo, po, 200 mg/monkey, Plasma Concentration, PG/glycerin/Vitamin ETPGS/ethanol formulation, 24 hr, AVG) of the same compound?
Answer: 4840 ng/mL

Question: And the concentration at 48 hr (male, cynomolgus monkey, in vivo, po, 200 mg/monkey, Plasma Concentration, PG/glycerin/Vitamin ETPGS/ethanol formulation, 48 hr, AVG)?
Answer: 2620 ng/mL

Question: And the concentration at 72 hr (male, cynomolgus monkey, in vivo, po, 200 mg/monkey, Plasma Concentration, PG/glycerin/Vitamin ETPGS/ethanol formulation, 72 hr, AVG)?
Answer: 296 ng/mL

Question: What about the “Plasma Concentration” value (oral, 50 mg/monkey, PG/glycerin/Vitamin ETPGS/Tween80/Plasdone C15 formulation, 0.25 hr, individual monkey) of the same compound?
Answer: 56.3 ng/mL and 67.8 ng/mL

Question: And the “Plasma Concentration” value (oral, 50 mg/monkey, PG/glycerin/Vitamin ETPGS/Tween80/Plasdone C15 formulation, 0.50 hr, individual monkey)?
Answer: 409 ng/mL and 2660 ng/mL and 7590 ng/mL

Question: What about the “Plasma Concentration” value (oral, 50 mg/monkey, PG/glycerin/Vitamin ETPGS/Tween80/Plasdone C15 formulation, 1.0 hr, individual monkey) of the same compound?
Answer: 1010 ng/mL and 17400 ng/mL and 56100 ng/mL

Question: What about the “Plasma Concentration” value (oral, 50 mg/monkey, PG/glycerin/Vitamin ETPGS/Tween80/Plasdone C15 formulation, 2.0 hr, individual monkey) of the same compound?
Answer: 63500 ng/mL and 68500 ng/mL

Question: And the “Plasma Concentration” value (oral, 50 mg/monkey, PG/glycerin/Vitamin ETPGS/Tween80/Plasdone C15 formulation, 6.0 hr, individual monkey)?
Answer: 36300 ng/mL and 29000 ng/mL

Question: What about the “Plasma Concentration” value (oral, 50 mg/monkey, PG/glycerin/Vitamin ETPGS/Tween80/Plasdone C15 formulation, 8.0 hr, individual monkey) of the same compound?
Answer: 21800 ng/mL and 19000 ng/mL

Question: What about the “Plasma Concentration” value (oral, 50 mg/monkey, PG/glycerin/Vitamin ETPGS/Tween80/Plasdone C15 formulation, 12 hr, individual monkey) of the same compound?
Answer: 9150 ng/mL and 6750 ng/mL

Question: And the “Plasma Concentration” value (oral, 50 mg/monkey, PG/glycerin/Vitamin ETPGS/Tween80/Plasdone C15 formulation, 24 hr, individual monkey)?
Answer: 1490 ng/mL and 988 ng/mL

Question: And the “Plasma Concentration” value (oral, 50 mg/monkey, PG/glycerin/Vitamin ETPGS/Tween80/Plasdone C15 formulation, 48 hr, individual monkey)?
Answer: 635 ng/mL and 174 ng/mL and 200 ng/mL

Question: And the “Plasma Concentration” value (oral, 50 mg/monkey, PG/glycerin/Vitamin ETPGS/Tween80/Plasdone C15 formulation, 72 hr, individual monkey)?
Answer: BLOQ

Question: And the Cmax [1]?
Answer: 63500 ng/mL and 68500 ng/mL

Question: And the t1/2 [1]?
Answer: 5.3 h and 5.4 h

Question: And the “Plasma Concentration” value (oral, 50 mg/monkey, PG/glycerin/Vitamin ETPGS/ethanol formulation, 0.25 hr, individual monkey)?
Answer: BLOQ

Question: And the “Plasma Concentration” value (oral, 50 mg/monkey, PG/glycerin/Vitamin ETPGS/ethanol formulation, 0.50 hr, individual monkey)?
Answer: 268 ng/mL and 420 ng/mL and 49.7 ng/mL

Question: What about the “Plasma Concentration” value (oral, 50 mg/monkey, PG/glycerin/Vitamin ETPGS/ethanol formulation, 1.0 hr, individual monkey) of the same compound?
Answer: 40200 ng/mL and 23100 ng/mL

Question: And the “Plasma Concentration” value (oral, 50 mg/monkey, PG/glycerin/Vitamin ETPGS/ethanol formulation, 2.0 hr, individual monkey)?
Answer: 70800 ng/mL

Question: And the “Plasma Concentration” value (oral, 50 mg/monkey, PG/glycerin/Vitamin ETPGS/ethanol formulation, 4.0 hr, individual monkey)?
Answer: 33200 ng/mL and 59800 ng/mL

Question: What about the “Plasma Concentration” value (oral, 50 mg/monkey, PG/glycerin/Vitamin ETPGS/ethanol formulation, 6.0 hr, individual monkey) of the same compound?
Answer: 18100 ng/mL and 14000 ng/mL and 37000 ng/mL

Question: What about the “Plasma Concentration” value (oral, 50 mg/monkey, PG/glycerin/Vitamin ETPGS/ethanol formulation, 8.0 hr, individual monkey) of the same compound?
Answer: 10600 ng/mL and 10000 ng/mL and 23600 ng/mL

Question: And the “Plasma Concentration” value (oral, 50 mg/monkey, PG/glycerin/Vitamin ETPGS/ethanol formulation, 12 hr, individual monkey)?
Answer: 3390 ng/mL and 3450 ng/mL and 9100 ng/mL

Question: What about the “Plasma Concentration” value (oral, 50 mg/monkey, PG/glycerin/Vitamin ETPGS/ethanol formulation, 24 hr, individual monkey) of the same compound?
Answer: 922 ng/mL and 1100 ng/mL and 2000 ng/mL

Question: And the “Plasma Concentration” value (oral, 50 mg/monkey, PG/glycerin/Vitamin ETPGS/ethanol formulation, 48 hr, individual monkey)?
Answer: 62.6 ng/mL and 97.8 ng/mL and 286 ng/mL

Question: What about the “Plasma Concentration” value (oral, 50 mg/monkey, PG/glycerin/Vitamin ETPGS/ethanol formulation, 72 hr, individual monkey) of the same compound?
Answer: BLOQ

Question: What about the Cmax [2] of the same compound?
Answer: 50500 ng/mL and 70800 ng/mL

Question: And the “Dnzed AUCall” value [2]?
Answer: 33692 ng·h/mL/mg/kg

Question: And the t1/2 [2]?
Answer: 7.0 h and 7.4 h

Question: And the “Plasma Concentration” value (oral, 200 mg/monkey, PG/glycerin/Vitamin ETPGS/ethanol formulation, 0.25 hr, individual monkey)?
Answer: 1040 ng/mL and 89.0 ng/mL

Question: And the “Plasma Concentration” value (oral, 200 mg/monkey, PG/glycerin/Vitamin ETPGS/ethanol formulation, 0.50 hr, individual monkey)?
Answer: 10300 ng/mL and 1740 ng/mL

Question: What about the “Plasma Concentration” value (oral, 200 mg/monkey, PG/glycerin/Vitamin ETPGS/ethanol formulation, 1.0 hr, individual monkey) of the same compound?
Answer: 88400 ng/mL and 41200 ng/mL

Question: What about the “Plasma Concentration” value (oral, 200 mg/monkey, PG/glycerin/Vitamin ETPGS/ethanol formulation, 2.0 hr, individual monkey) of the same compound?
Answer: 232000 ng/mL

Question: What about the “Plasma Concentration” value (oral, 200 mg/monkey, PG/glycerin/Vitamin ETPGS/ethanol formulation, 4.0 hr, individual monkey) of the same compound?
Answer: 138000 ng/mL

Question: What about the “Plasma Concentration” value (oral, 200 mg/monkey, PG/glycerin/Vitamin ETPGS/ethanol formulation, 6.0 hr, individual monkey) of the same compound?
Answer: 76300 ng/mL

Question: And the “Plasma Concentration” value (oral, 200 mg/monkey, PG/glycerin/Vitamin ETPGS/ethanol formulation, 12 hr, individual monkey)?
Answer: 23700 ng/mL

Question: What about the “Plasma Concentration” value (oral, 200 mg/monkey, PG/glycerin/Vitamin ETPGS/ethanol formulation, 24 hr, individual monkey) of the same compound?
Answer: 2180 ng/mL and 7500 ng/mL

Question: What about the “Plasma Concentration” value (oral, 200 mg/monkey, PG/glycerin/Vitamin ETPGS/ethanol formulation, 48 hr, individual monkey) of the same compound?
Answer: 547 ng/mL and 4700 ng/mL

Question: What about the “Plasma Concentration” value (oral, 200 mg/monkey, PG/glycerin/Vitamin ETPGS/ethanol formulation, 72 hr, individual monkey) of the same compound?
Answer: 117 ng/mL and 474 ng/mL

Question: And the AUCall [3]?
Answer: 1398.863 µg·h/mL

Question: What about the Cmax [3] of the same compound?
Answer: 232000 ng/mL

Question: What about the “Dnzed AUCall” value [3] of the same compound?
Answer: 27977 ng·h/mL/mg/kg

Question: What about the t1/2 [3] of the same compound?
Answer: 10.1 h
